± gives the expanded uncertainty stated by the source.
Experiment: mn = molality of the nth substance listed, in mol/kg
Conditions: for electrical conductivity / mass density: 101 kPa, Liquid; for electrical conductivity: Alternating current cell with electrodes

CC(=O)CC(c1ccccc1)c1c([O-])c2ccccc2oc1=O.[Na+] (stereo not given) [warfarin sodium] + O
Conditions | electrical conductivity [S/m] | mass density [kg/m3] | surface tension liquid-gas [mN/m]
293.15 K, m1 = 0.005 | 0.0273 ± 0.001 | – | –
293.15 K, m1 = 0.00573 | – | 998.701 ± 0.66 | –
293.15 K, m1 = 0.006 | 0.0326 ± 0.001 | – | 66.46 ± 3.4
293.15 K, m1 = 0.00689 | – | 998.801 ± 0.66 | –
293.15 K, m1 = 0.007 | 0.0379 ± 0.001 | – | 65.61 ± 3.4
293.15 K, m1 = 0.00749 | – | 998.852 ± 0.66 | –
293.15 K, m1 = 0.008 | 0.0434 ± 0.001 | – | 64.92 ± 3.3
293.15 K, m1 = 0.00851 | – | 998.94 ± 0.66 | –
293.15 K, m1 = 0.009 | 0.0485 ± 0.001 | – | 64.06 ± 3.3
293.15 K, m1 = 0.00983 | – | 999.054 ± 0.66 | –
293.15 K, m1 = 0.01 | 0.0535 ± 0.001 | – | 62.77 ± 3.2
293.15 K, m1 = 0.018 | – | – | 58.07 ± 3
293.15 K, m1 = 0.02 | 0.1042 ± 0.001 | – | –
293.15 K, m1 = 0.02401 | – | 1000.27 ± 0.65 | –
293.15 K, m1 = 0.027 | – | – | 52.97 ± 2.8
293.15 K, m1 = 0.04 | 0.198 ± 0.006 | – | 50.48 ± 2.7
293.15 K, m1 = 0.0466 | – | 1002.19 ± 0.67 | –
293.15 K, m1 = 0.054 | – | – | 48.47 ± 2.6
293.15 K, m1 = 0.06 | 0.283 ± 0.006 | – | –
293.15 K, m1 = 0.067 | – | – | 45.58 ± 2.4
293.15 K, m1 = 0.0718 | – | 1004.26 ± 0.69 | –
293.15 K, m1 = 0.078 | – | – | 43.98 ± 2.4
293.15 K, m1 = 0.08 | 0.381 ± 0.006 | – | –
293.15 K, m1 = 0.089 | – | – | 41.68 ± 2.2
293.15 K, m1 = 0.0984 | – | 1006.41 ± 0.71 | –
293.15 K, m1 = 0.1 | 0.464 ± 0.006 | – | –
293.15 K, m1 = 0.107 | – | – | 41.58 ± 2.2
293.15 K, m1 = 0.125 | 0.56 ± 0.006 | – | 40.94 ± 2.2
293.15 K, m1 = 0.1251 | – | 1008.51 ± 0.73 | –
293.15 K, m1 = 0.15 | 0.651 ± 0.006 | 1010.43 ± 0.76 | 40.38 ± 2.2
293.15 K, m1 = 0.175 | 0.737 ± 0.006 | – | 40.23 ± 2.2
293.15 K, m1 = 0.176 | – | 1012.59 ± 0.78 | –
293.15 K, m1 = 0.2 | 0.822 ± 0.006 | 1014.56 ± 0.81 | 40.72 ± 2.2
293.15 K, m1 = 0.225 | 0.901 ± 0.006 | 1016.71 ± 0.83 | 40.23 ± 2.2
293.15 K, m1 = 0.25 | 0.974 ± 0.006 | 1018.89 ± 0.86 | 39.64 ± 2.1
293.15 K, m1 = 0.275 | 1.041 ± 0.006 | 1020.99 ± 0.88 | –
293.15 K, m1 = 0.279 | – | – | 40.09 ± 2.2
293.15 K, m1 = 0.3 | 1.102 ± 0.006 | 1023.15 ± 0.91 | –
293.15 K, m1 = 0.325 | – | 1025.24 ± 0.94 | –
293.15 K, m1 = 0.35 | – | 1027.33 ± 0.96 | –
293.15 K, m1 = 0.375 | – | 1029.29 ± 0.99 | –
293.15 K, m1 = 0.401 | – | 1031.33 ± 1 | –
303.15 K, m1 = 0.005 | 0.0288 ± 0.001 | – | –
303.15 K, m1 = 0.00579 | – | 996.134 ± 0.76 | –
303.15 K, m1 = 0.006 | 0.0344 ± 0.001 | – | –
303.15 K, m1 = 0.00695 | – | 996.231 ± 0.68 | –
303.15 K, m1 = 0.007 | 0.04 ± 0.001 | – | –
303.15 K, m1 = 0.00754 | – | 996.281 ± 0.68 | –
303.15 K, m1 = 0.008 | 0.0455 ± 0.001 | – | –
303.15 K, m1 = 0.00857 | – | 996.367 ± 0.68 | –
303.15 K, m1 = 0.009 | 0.051 ± 0.001 | – | –
303.15 K, m1 = 0.00987 | – | 996.476 ± 0.69 | –
303.15 K, m1 = 0.01 | 0.0565 ± 0.001 | – | –
303.15 K, m1 = 0.02 | 0.1087 ± 0.001 | – | –
303.15 K, m1 = 0.024 | – | 997.658 ± 0.67 | –
303.15 K, m1 = 0.04 | 0.209 ± 0.006 | – | –
303.15 K, m1 = 0.0465 | – | 999.515 ± 0.66 | –
303.15 K, m1 = 0.06 | 0.302 ± 0.006 | – | –
303.15 K, m1 = 0.0715 | – | 1001.52 ± 0.67 | –
303.15 K, m1 = 0.08 | 0.39 ± 0.006 | – | –
303.15 K, m1 = 0.0983 | – | 1003.59 ± 0.69 | –
303.15 K, m1 = 0.1 | 0.473 ± 0.006 | – | –
303.15 K, m1 = 0.125 | 0.575 ± 0.006 | 1005.62 ± 0.71 | –
303.15 K, m1 = 0.15 | 0.67 ± 0.006 | 1007.48 ± 0.73 | –
303.15 K, m1 = 0.175 | 0.761 ± 0.006 | – | –
303.15 K, m1 = 0.176 | – | 1009.57 ± 0.76 | –
303.15 K, m1 = 0.2 | 0.847 ± 0.006 | 1011.47 ± 0.78 | –
303.15 K, m1 = 0.225 | 0.928 ± 0.006 | 1013.56 ± 0.8 | –
303.15 K, m1 = 0.25 | 1.008 ± 0.006 | 1015.65 ± 0.83 | –
303.15 K, m1 = 0.275 | 1.081 ± 0.006 | 1017.69 ± 0.85 | –
303.15 K, m1 = 0.3 | 1.154 ± 0.006 | 1019.77 ± 0.88 | –
303.15 K, m1 = 0.325 | – | 1021.79 ± 0.91 | –
303.15 K, m1 = 0.35 | – | 1023.81 ± 0.93 | –
303.15 K, m1 = 0.375 | – | 1025.71 ± 0.96 | –
303.15 K, m1 = 0.3999 | – | 1027.67 ± 0.99 | –
313.15 K, m1 = 0.005 | 0.0299 ± 0.001 | – | –
313.15 K, m1 = 0.00576 | – | 992.687 ± 0.76 | –
313.15 K, m1 = 0.006 | 0.0358 ± 0.001 | – | –
313.15 K, m1 = 0.00695 | – | 992.784 ± 0.71 | –
313.15 K, m1 = 0.007 | 0.0416 ± 0.001 | – | –
313.15 K, m1 = 0.00759 | – | 992.836 ± 0.7 | –
313.15 K, m1 = 0.008 | 0.0474 ± 0.001 | – | –
313.15 K, m1 = 0.00857 | – | 992.916 ± 0.71 | –
313.15 K, m1 = 0.009 | 0.0532 ± 0.001 | – | –
313.15 K, m1 = 0.00988 | – | 993.022 ± 0.71 | –
313.15 K, m1 = 0.01 | 0.059 ± 0.001 | – | –
313.15 K, m1 = 0.02 | 0.1131 ± 0.001 | – | –
313.15 K, m1 = 0.0241 | – | 994.171 ± 0.7 | –
313.15 K, m1 = 0.04 | 0.216 ± 0.006 | – | –
313.15 K, m1 = 0.047 | – | 995.977 ± 0.69 | –
313.15 K, m1 = 0.06 | 0.314 ± 0.006 | – | –
313.15 K, m1 = 0.0719 | – | 997.928 ± 0.67 | –
313.15 K, m1 = 0.08 | 0.401 ± 0.006 | – | –
313.15 K, m1 = 0.0984 | – | 999.945 ± 0.66 | –
313.15 K, m1 = 0.1 | 0.489 ± 0.006 | – | –
313.15 K, m1 = 0.125 | 0.595 ± 0.006 | 1001.91 ± 0.68 | –
313.15 K, m1 = 0.15 | 0.694 ± 0.006 | 1003.72 ± 0.7 | –
313.15 K, m1 = 0.175 | 0.79 ± 0.006 | – | –
313.15 K, m1 = 0.176 | – | 1005.74 ± 0.72 | –
313.15 K, m1 = 0.2 | 0.88 ± 0.006 | 1007.59 ± 0.75 | –
313.15 K, m1 = 0.225 | 0.963 ± 0.006 | 1009.61 ± 0.77 | –
313.15 K, m1 = 0.25 | 1.046 ± 0.006 | 1011.64 ± 0.8 | –
313.15 K, m1 = 0.275 | 1.13 ± 0.01 | 1013.62 ± 0.82 | –
313.15 K, m1 = 0.3 | 1.206 ± 0.006 | 1015.64 ± 0.85 | –
313.15 K, m1 = 0.325 | – | 1017.6 ± 0.87 | –
313.15 K, m1 = 0.35 | – | 1019.56 ± 0.9 | –
313.15 K, m1 = 0.375 | – | 1021.4 ± 0.93 | –
313.15 K, m1 = 0.4009 | – | 1023.31 ± 0.95 | –
323.15 K, m1 = 0.005 | 0.0327 ± 0.001 | – | –
323.15 K, m1 = 0.00585 | – | 988.498 ± 0.74 | –
323.15 K, m1 = 0.006 | 0.039 ± 0.001 | – | –
323.15 K, m1 = 0.007 | 0.0454 ± 0.001 | – | –
323.15 K, m1 = 0.00702 | – | 988.591 ± 0.74 | –
323.15 K, m1 = 0.00767 | – | 988.642 ± 0.74 | –
323.15 K, m1 = 0.008 | 0.0516 ± 0.001 | – | –
323.15 K, m1 = 0.0087 | – | 988.722 ± 0.74 | –
323.15 K, m1 = 0.009 | 0.0576 ± 0.001 | – | –
323.15 K, m1 = 0.01 | 0.0638 ± 0.001 | – | –
323.15 K, m1 = 0.01001 | – | 988.824 ± 0.74 | –
323.15 K, m1 = 0.02 | 0.1211 ± 0.001 | – | –
323.15 K, m1 = 0.0243 | – | 989.947 ± 0.73 | –
323.15 K, m1 = 0.04 | 0.233 ± 0.006 | – | –
323.15 K, m1 = 0.0469 | – | 991.708 ± 0.72 | –
323.15 K, m1 = 0.06 | 0.338 ± 0.006 | – | –
323.15 K, m1 = 0.072 | – | 993.609 ± 0.71 | –
323.15 K, m1 = 0.08 | 0.429 ± 0.006 | – | –
323.15 K, m1 = 0.0985 | – | 995.582 ± 0.7 | –
323.15 K, m1 = 0.1 | 0.523 ± 0.006 | – | –
323.15 K, m1 = 0.125 | 0.634 ± 0.006 | 997.493 ± 0.69 | –
323.15 K, m1 = 0.15 | 0.734 ± 0.006 | 999.248 ± 0.68 | –
323.15 K, m1 = 0.175 | 0.83 ± 0.006 | – | –
323.15 K, m1 = 0.1765 | – | 1001.22 ± 0.69 | –
323.15 K, m1 = 0.2 | 0.921 ± 0.006 | 1003.02 ± 0.71 | –
323.15 K, m1 = 0.225 | 1.008 ± 0.006 | 1004.99 ± 0.73 | –
323.15 K, m1 = 0.25 | 1.091 ± 0.006 | 1006.96 ± 0.76 | –
323.15 K, m1 = 0.275 | 1.171 ± 0.006 | 1008.89 ± 0.78 | –
323.15 K, m1 = 0.3 | 1.245 ± 0.006 | 1010.86 ± 0.81 | –
323.15 K, m1 = 0.325 | – | 1012.77 ± 0.83 | –
323.15 K, m1 = 0.35 | – | 1014.68 ± 0.86 | –
323.15 K, m1 = 0.375 | – | 1016.47 ± 0.88 | –
323.15 K, m1 = 0.4021 | – | 1018.32 ± 0.91 | –

Reference: the NIST ThermoML archive (doi:10.1021/je7003116)
